Assay results as given in patent US20230144203A1 (SHANGHAI SENHUI MEDICINE CO., LTD., priority 2020, published 2023).

Tests used:
Assay type in all cases: cell-based
A549 = experiment: Test Example 2 in vitro cytotoxic activity screening (CTG)
Protocol: (§1) The CTG is used for detecting the ATP content in the experiment, and the survival condition of the tumor cells is reflected.
(§2) A549, SKBR3 and MDA-MB-468 were digested with trypsin, and each was resuspended in culture medium to a cell density of 2.2×10^4 cells/mL, and 135 μL of cell suspension was added to each well in columns 2 to 11 of a 96-well plate, and column 12 was set as blank control. The cells were incubated in an incubator for 24 h at 37° C. with 5% CO2.
(§3) a) Stock solution preparation: the test compound and positive control drug were dissolved in DMSO to give a stock solution at a concentration of 5 mM.
(§4) b) Drug preparation plate 1: stock solution in column 1 was initially diluted 40-fold, and 3-fold gradient dilutions were performed sequentially in column 2 to column 11. Column 12 was filled with DMSO.
(§5) c) Drug preparation plate 2: 196 μL of the corresponding culture medium was added into columns 2 to 11, and 4 μL of culture medium was pipetted from column 3 to column 12 of drug preparation plate 1 to column 2 to column 11 of drug preparation plate
(§6) 15 μL of culture medium was pipetted from the drug preparation plate 2 and added into the plated cells. The cells were continuously incubated in an incubator for 5 h at 37° C. with 5% CO2.
(§7) 2.4) CTG assay (Cell Titer-Glo™, luminescent cell viability assay): the cell plates were removed and balanced to room temperature. 75 μL of CTG was added into each well and reacted at room temperature for 10 min in the dark. The absorption value was read using a microplate reader and IC50 was calculated.

MDA-MB-468 = experiment: as above
Protocol: as §1, §2, §3, §4, §5, §6, §7

SKBR3 = experiment: as above
Protocol: as §1, §2, §3, §4, §5, §6, §7

SK-OV-3 = experiment: Test Example 4 cell killing study (CTG, 6 days); conditions: Homo sapiens, SK-OV-3, 144 h, 6 days culture, read-out: IC50 (SKOV3)
From the text: (§8) The objective of this study is to test the inhibitory activity of the anti-TROP-2 antibody (PD3)-drug conjugate of the present disclosure against the proliferation of different tumor cell lines: Miapaca2 tumor cells (human pancreatic cancer cells, Nanjing Kebai Biotechnology Co., Ltd., Cat #CBP60544), Fadu tumor cells (human squamous cell carcinoma, ATCC, Cat #HTB-43), SK-OV-3 (human ovarian cancer cells, ATCC, Cat #HTB-77), K562 (human chronic granulocytic leukemia cells, ATCC, Cat #CCL-243), HCC827 (human lung cancer cells, ATCC, Cat #CRL-2868) and BXPC3 (human pancreatic cancer cells, ATCC, Cat #CRL-1687). The cells were treated in vitro with the antibody drug conjugate at different concentrations. After 6 days of culture, the proliferation of cells was tested using CTG (CellTiter-Glo® Luminescent Cell Viability Assay, Promega, Cat #G7573) reagents, and the in vitro activity of the antibody drug conjugate was evaluated according to IC50 value.
(§9) 2) Cell plating: on the day of the study, after the cells were digested with Trypsin (0.25% Trypsin-EDTA (1×), Life Technologies, Cat #25200-072), MiaPaCa2, Fadu, SK-OV-3, K562, HCC827 and BXPC3 were suspended in cell suspensions using the corresponding media to a density of 3.7×10^3 cells/mL, and 135 μL of suspension was added into each well of a 96-well plate (coming, Cat #3903) to culture 500 cells per well at 37° C. for 24 h.
(§10) 3) Drug preparation: the mother liquor of the test ADC was first adjusted to have a concentration of 4 μM and was added to the first column of a drug preparation plate (coming, Cat #3599). The plate was diluted 5-fold in gradient from column 2 to column 9, with PBS in column 10. 15 μL of the mother liquor in each well was added to the cell culture plate.
(§11) 4) CTG assay: after being cultured at 37° C. for 6 days, the cell culture plate was removed and balanced to room temperature. 75 μL of CTG was added into each well and reacted at room temperature for 10 min in the dark. The absorption value was read using a microplate reader (BMG labtech, PHERAstar FS).
(§12) Data were processed and analyzed using Graphpad Prism 5.

Fadu tumor cells = experiment: Test Example 4 cell killing study (CTG, 6 days); conditions: Homo sapiens, 144 h, 6 days culture
From the text: as §8, §9, §10, §11, §12

HCC827 = experiment: Test Example 4 cell killing study (CTG, 6 days); conditions: Homo sapiens, HCC827, 144 h, 6 days culture
From the text: as §8, §9, §10, §11, §12

Miapaca2 tumor cells = experiment: Test Example 4 cell killing study (CTG, 6 days); conditions: Homo sapiens, MIA PaCa-2, 144 h, 6 days culture, read-out: IC50 (Miapaca)
From the text: as §8, §9, §10, §11, §12

K562 = experiment: Test Example 4 cell killing study (CTG, 6 days); conditions: Homo sapiens, K562, 144 h, 6 days culture
From the text: as §8, §9, §10, §11, §12

BXPC3 = experiment: Test Example 4 cell killing study (CTG, 6 days); conditions: Homo sapiens, BXPC-3, 144 h, 6 days culture
From the text: as §8, §9, §10, §11, §12

C=C1C[C@@H]2CC[C@@]34C[C@H]5O[C@H]6[C@@H](O3)[C@H]3O[C@H](CC[C@@H]3O[C@H]6[C@H]5O4)CC(=O)C[C@@H]3[C@@H](OC)[C@@H](C[C@H](O)CO)O[C@H]3C[C@H]3O[C@@H](CC[C@@H]1O2)C[C@@H](C)C3=C [Compound E1-30, reference compound]
Maximum inhibition (A549; A549, CTG, incubated 5 h): 62.46%
IC50 (A549; Homo sapiens, A549, 5 h): 0.781 nM
IC50 (MDA-MB-468; Homo sapiens, MDA-MB-468, 5 h): 0.36 nM
Maximum inhibition (MDA-MB-468; MDA-MB-468, CTG, incubated 5 h): 90.49%
IC50 (SKBR3; Homo sapiens, SK-BR-3, 5 h): 0.166 nM
Maximum inhibition (SKBR3; SKBR3, CTG, incubated 5 h): 96.15%
IC50 (SK-OV-3): 0.17 nM
IC50 (Fadu tumor cells): 0.32 nM
IC50 (HCC827): 0.31 nM
IC50 (Miapaca2 tumor cells): 0.45 nM
IC50 (K562): 0.39 nM
IC50 (BXPC3): 0.23 nM
